Assays:
[1] = tested on: Niemann-Pick C1-deficient (npc1−/−) fibroblasts; assay: Cholesterol mobilization (filipin staining) in npc1−/− fibroblasts; format: cell-based; conditions: 6 h after treatment, total β-CD concentration 25 μM
Procedure: PR carrying an increasing percentage of SBE-β-CD were administered to Niemann-Pick C1-deficient (npc1−/−) fibroblasts to examine their ability to mobilize cholesterol from sites of aberrant accumulation. Each PR family member, generated with a 0%, 30%, 50%, 60%, or 100% SBE-β-CD feed ratio, was administered at a total β-CD concentration of 25 μM and compared to administration of 25 μM SBE-β-CD or HP-β-CD monomers as controls. Comparisons were made at equivalent β-CD concentrations in these experiments, such that each PR construct carrying 10 copies of β-CD was administered at a 10-fold lower molar concentration than for the β-CD monomer controls, so that any apparent differences in cholesterol mobilization could be attributed to the PR agent (a type of β-CD prodrug) rather than the total drug concentration added to the cells.
HP-β-CD and SBE-β-CD monomers decreased the average filipin staining in npc1−/− fibroblasts to approximately 75% of the untreated control levels after 6 h. PR comprised of 100% HP-β-CD and 100% SBE-β-CD performed equivalently, each decreasing filipin staining to ˜78% of control. PRs carrying 30:70 SBE-β-CD:HP-β-CD ratio decreased fluorescence to ˜65% of the untreated group.

[2] = room temperature, in water; cited from earlier work
[3] = within 24 h; cited from earlier work
[4] = tested on: npc1^−/− mice; conditions: subcutaneous injection, 4.0 mg/kg of body weight; cited from earlier work
[5] = Fixed-field relaxivity measurement at 7 T; format: physicochemical; conditions: 7 T Bruker BioSpec; 23° C.; 0.05 to 1.0 mM Gd in water
Procedure: A fixed field measurement of relaxivity was also performed on aqueous solutions of the polyrotaxane contrast agents in the range of 0.05 to 1.0 mM using a 7 T ([…]) Bruker BioSpec scanner at 23° C. The relaxivity r1 and r2 were determined by plotting the inverse longitudinal (1/T1) and transversal (1/T2) relaxation times, respectively, as a function of Gd concentrations.
Relaxivity Measurements. The longitudinal and transversal relaxation rate of the contrast agents and J774 macrophage cells were measured using a 7 T Bruker BioSpec scanner (Bindley Bioscience Center, West Lafayette, Ind.) 47/30 equipped with a Bruker Biospin MRI GmbH volume coil, 86 mm ID, operating at 300 MHz at 23° C. (RES 300 1 H 112/086 QNS TO AD). […] T1 and T2 values were measured using inversion recovery sequence and multi-slice-multi-echo (MSME) sequence respectively. […] The parameters used are as followed. r1: Repetition times, TE=50.72, 100, 350, 750, 1250, 2500, 3500, and 5000 ms, echo time, TE=22.22 ms, FOV=10×10 mm^2, matrix=128×128, slice thickness=1.0 mm, acquisition number=1. r2: TR=2000 ms, TE=15, 30, 45, 60, 75, 90, 105 ms, FOV=20×20 mm^2, matrix=128×128, slice thickness=1 mm, acquisition number=1. r1 and r2 values were determined by as the slopes of the lines for the plot of 1/T1 and 1/T2 against Gd concentrations, respectively, using the same ROI.

[6] = In vivo MRI contrast enhancement in Balb/C mice; conditions: i.v., 3D T1-weighted MRI
Procedure: In Vivo MRI Contrast Enhancement of Gd^3+—HP-β-CD/SBE-β-CD-PRs. To investigate the MR contrast enhancement and the circulation fate in vivo of the polyrotaxanes, 3D T1-weighted MR images of Balb/C mice after intra-venous injection were acquired with 7 T Bruker small animal scanner before injection and 10, 20, 35, 50, and 60 min post injection. The tissue contrast enhancement of the compounds has different fates dependent on the threading efficiency, molecular weight, size and surface charge of each contrast agent. […] As expected, DOTAREM® was completely eliminated within 20 min, a typical trend commonly observed for small contrast agents.
To quantify the contrast enhancements, the contrast signal-to-noise ratio (CNR) was calculated from regions of interest (ROIs) carefully drawn in the cross-section images of heart, liver, and kidney obtained from the 2D T1-weighted scans. There was insignificant signal enhancement in all these tissues (FIG. 4). […]
In Vivo MR Imaging. […] To quantify the changes in tissues signal intensity, regions of interest (ROIs) were drawn in images of different organs obtained from the 2D T1-weighted scans and ParaVision software was used to evaluate the mean intensities. The contrast-to-noise ratio (CNR) was calculated for the tissues using the following equation: […]

[7] = tested on: J774 macrophage cells; assay: Cellular uptake by MR relaxation of lysed cells; format: cell-based; conditions: 0.1 mM Gd, 12 h at 37° C., serum free media, 7 T
Procedure: Cellular Uptake Studies. Since macromolecular constructs such as polyrotaxanes can trigger the innate immune system (monocytes, macrophages, dendritic cells) in vivo, their uptake of the polyrotaxane contrast was evaluated by macrophages using the MR imaging modality. In addition, one can take advantage of the biological properties of these materials to image macrophages in human diseases including cancer, atherosclerosis, myocardial infarction, diabetes and other conditions. Macrophages are known to play an important role in host system defense leading to the detrimental fate of most nanomaterials. […] Based on these reports, cellular uptake in J774 macrophages of the polyrotaxane contrast agents was assessed. […] T1 and T2 values from the lysed cells contained in 300 μL eppendorf tubes were measured using an inversion recovery sequence at 7 T and the inverse of spin-lattice (1/T1) and spin-spin (1/T2) relaxation times were evaluated. […]
Cellular Uptake Studies. […] These cells were then collected and analyzed using reverse spin echo scanning on Bruker 7 T Biospect small animal scanner (Bindley Bioscience Center, West Lafayette, Ind.). The relaxations T1 and T2 values were collected from samples images recorded from the cells contained in 300 μL plastic containers using the scanning conditions similarly to those employed for In vitro imaging of polyrotaxane solutions.

Compound | filipin staining, % of untreated control [1] | water solubility [2] [g/mL] | fraction cleared from the bloodstream [3] [%] | effect on survival, hepatopathology, neuropathology [4] | r1 (mM^−1s^−1) (1/T1) [5] [mM⁻¹ s⁻¹] | time to complete elimination [6] [min] | cellular uptake (1/T1, 1/T2 of lysed cells) [7]
2-Hydroxypropyl-β-cyclodextrin [HP-β-CD] | approximately 75% | 0.65 | > 90 | improvement in their survival, hepatopathology, and neuropathology |  |  | 
4-sulfobutylether-β-cyclodextrin [SBE-β-CD] | approximately 75% |  |  |  |  |  | 
CNC[C@H](O)[C@@H](O)[C@H](O)[C@H](O)CO.O=C([O-])CN1CCN(CC(=O)[O-])CCN(CC(=O)O)CCN(CC(=O)[O-])CC1.[Gd+3] [DOTAREM] |  |  |  |  | 3.8 | ≤ 20 | did not show any endocytosis
